Drawing on ChEMBL document CHEMBL1147160, “Bioactive constituents from the marine crinoid Himerometra magnipinna” (2007), this text covers Activity and zone of inhibition for 3 compounds.

The subject of test [1] is Streptomyces. In words: Inhibition of hyphae formation in Streptomyces 85E at 40 ug/disk after 30 hrs by HF1 assay. Type of test: functional, organism-based.
Test [2] has as its system Streptomyces. Briefly: Inhibition of hyphae formation in Streptomyces 85E at 80 ug/disk after 30 hrs by HF1 assay. Type of test: functional. As to conditions: for zone of inhibition at 80 µg/disc: read-out: IZ.

Calls of active or inactive are those of the source. The rule behind the calls is not given here.

For the compound `CCCc1cc(O)c2c(c1)C(C1c3cc(O)cc(O)c3C(=O)c3c(O)cc(C(O)CC)cc31)c1cc(O)cc(O)c1C2=O` (stereo not given), in test [1], the result was inactive. In addition, the zone of inhibition at 80 µg/disc in test [2] was 11 mm.

For the compound `COC1=C(Br)[C@H](O)[C@@]2(C=C1Br)CC(C(=O)NCCC(O)CCNC(=O)C1=NO[C@]3(C=C(Br)C(OC)=C(Br)[C@@H]3O)C1)=NO2`, the outcome in test [1] was inactive. Further, the zone of inhibition at 80 µg/disc in test [2] was 11 mm.

On to `COC1=C(Br)[C@H](O)[C@@]2(C=C1Br)CC(C(=O)NCCCCNC(=O)C1=NO[C@]3(C=C(Br)C(OC)=C(Br)[C@@H]3O)C1)=NO2`, for which, in test [2], the result was inactive.
